# From patent publication US6932960B2, “N-substituted 3-hydroxy-4-pyridinones and pharmaceuticals containing thereof” (Bristol-Myers Squibb Pharma Company, priority 2002, dated 2005)
# Legend:
# [1] = Zn(II) binding affinity of the chelator; cited from earlier work
# [2] = Zn(II) binding constant (Log KZnL/[Zn][L]), literature values; format: physicochemical; conditions: relative to N-hydroxyacetamide
Compound,Log KZnL/[Zn][L] [1],Log KZnL/[Zn][L] fold higher than that of N-hydroxyacetamide [2]
"Cc1c(O)c(=O)ccn1C [Deferiprone, 1,2-dimethyl-3-hydroxy-4-pyridinone]",7.19,about 100 fold
CC(=O)NO [N-hydroxyacetamide],< 5,
